11 compounds from ChEMBL document CHEMBL1201862, “PubChem BioAssay data set” (2004) can be followed below.

Among the test systems are HL-60; HCT-15; HT-29; SNB-75; OVCAR-3; M14; HOP-62; SK-MEL-2; SF-295; UACC-257; SK-MEL-5; 786-0; K562; SK-MEL-28; ACHN; NCI/ADR-RES; Malme-3M; SF-539; OVCAR-4; HOP-92.
Holding throughout (assay): NCI tumour cell line growth inhibition, 48 h

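Five concentrations, 48 hours, 96-well plates. The concentration for 50% growth inhibition is given as GI50.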 Calls of active or inactive are those of the source. No stated cut-off is given here; in the data, active = GI50 up to about 1.1 µM and inactive = higher.

On to `COc1ccccc1NC(=O)O/N=C(/Cl)C(C)C`, for which the GI50 in the assay on HL-60 was 1.64 µM (inactive); in the assay with HCT-15 it was 13.2 µM; in the assay with HT-29, 3.49 µM (inactive); in the assay on SNB-75 it was 0.889 µM (active); in the assay with OVCAR-3 it was 6.19 µM (inactive); with M14 it was 5.9 µM (inactive). Besides, the GI50 in the assay with HOP-62 was 12.5 µM (inactive); with SK-MEL-2, 16.4 µM (inactive); in the assay with SF-295, 15.2 µM (inactive); in the assay with UACC-257 it was 13.7 µM (inactive); in the assay with SK-MEL-5, 11.8 µM (inactive); with 786-0, 11.9 µM (inactive). In addition, the GI50 in the assay on K562 is 2.24 µM (inactive); with SK-MEL-28, 13.6 µM (inactive); in the assay on ACHN it was 5.92 µM (inactive); in the assay on NCI/ADR-RES, 15.3 µM (inactive); in the assay on Malme-3M, 2.78 µM (inactive); in the assay with SF-539, 19.5 µM (inactive).
In the case of `CC1(C)CCOC(=O)C(Cl)CC1Cl` (centres undefined), the GI50 in the assay with HCT-15 was > 100 µM; with HT-29, > 100 µM (inactive); in the assay on OVCAR-3, > 100 µM (inactive); with M14 it was > 100 µM (inactive); with OVCAR-4, > 100 µM (inactive); in the assay on HOP-62 it was > 100 µM (inactive). Further, the GI50 in the assay with SK-MEL-2, with SF-295, in the assay on UACC-257, in the assay on SK-MEL-5, with 786-0 and in the assay on K562 was > 100 µM (inactive) throughout. Besides, the GI50 in the assay with SK-MEL-28, in the assay with ACHN, in the assay with NCI/ADR-RES, with Malme-3M and with SF-539 was > 100 µM (inactive) each time.
Consider `CC(C)(C)OC(=O)NCCCCCCC(=O)Cc1ccccc1`, for which the GI50 in the assay with HCT-15 is > 100 µM; with HT-29 it was > 100 µM (inactive); in the assay on SNB-75, > 100 µM (inactive); in the assay with OVCAR-3, > 100 µM (inactive); with M14 it was > 100 µM (inactive); with OVCAR-4, > 100 µM (inactive). In addition, the GI50 in the assay with HOP-62 is > 100 µM (inactive); in the assay on SK-MEL-2, > 100 µM (inactive); in the assay with SF-295, > 100 µM (inactive); in the assay with UACC-257 it was > 100 µM (inactive); in the assay with HOP-92, > 100 µM (inactive); in the assay with SK-MEL-5 it was 60.8 µM (inactive). Also, the GI50 in the assay with 786-0, in the assay with K562, in the assay on SK-MEL-28, with ACHN, in the assay on NCI/ADR-RES and in the assay on Malme-3M was > 100 µM (inactive) throughout.
On to `C[N+]12C=CC=C1C(N1CCCC1)c1scc(-c3ccccc3)c12` (centres undefined), for which the GI50 in the assay with HT-29 was 8.65 µM (inactive); in the assay on SNB-75, 3.99 µM (inactive); in the assay on OVCAR-3, 7.83 µM (inactive); in the assay with M14, 50.2 µM (inactive); in the assay on HOP-62, 41.7 µM (inactive); in the assay on SK-MEL-2, 6.78 µM (inactive). For the same compound, the GI50 with SF-295 was 44.3 µM (inactive); in the assay with SK-MEL-5, 11.9 µM (inactive); with 786-0 it was 47.4 µM (inactive); in the assay with K562, 6 µM (inactive); in the assay with SK-MEL-28 it was 37.2 µM (inactive); in the assay on NCI/ADR-RES it was > 100 µM (inactive). In addition, the GI50 with Malme-3M is 11.8 µM (inactive).
With `O=C(c1ccccc1)N1CCC(Nc2nccs2)O1` (centres undefined), the GI50 was > 10 µM (inactive) in the assay with HL-60; > 10 µM in the assay with HCT-15; > 10 µM (inactive) with HT-29; > 10 µM (inactive) with SNB-75; > 10 µM (inactive) with OVCAR-3; > 10 µM (inactive) with M14. The GI50 in the assay on OVCAR-4, in the assay on HOP-62, in the assay with SK-MEL-2, in the assay on SF-295, in the assay on UACC-257 and in the assay on SK-MEL-5 was > 10 µM (inactive) throughout. In addition, the GI50 in the assay with 786-0, in the assay with K562, in the assay on SK-MEL-28, in the assay on ACHN, in the assay with NCI/ADR-RES and in the assay on Malme-3M was > 10 µM (inactive) throughout. The GI50 in the assay with SF-539 is > 10 µM (inactive).
`Cc1cccc2nc3cccc(C(=O)NCCC[N+](C)(CCCNC(=O)c4cccc5nc6cccc(C)c6nc45)Cc4ccc([N+](=O)[O-])n4C)c3nc12`: the GI50 in the assay with HCT-15 was 2.4 µM; in the assay with HT-29 it was 0.396 µM (active); with SNB-75 it was > 100 µM (inactive); with OVCAR-3, 3.98 µM (inactive); with M14, > 31.3 µM (inactive); in the assay on OVCAR-4 it was 27.3 µM (inactive). For the same compound, the GI50 is 0.809 µM (active) in the assay on HOP-62; 8.32 µM (inactive) in the assay on SK-MEL-2; 5.66 µM (inactive) in the assay on SF-295; > 31.6 µM (inactive) with UACC-257; > 100 µM (inactive) in the assay on HOP-92; 2.89 µM (inactive) in the assay on SK-MEL-5. The GI50 was 0.32 µM (active) with 786-0; 0.407 µM (active) in the assay with K562; 3.94 µM (inactive) in the assay on SK-MEL-28; 0.321 µM (active) in the assay with ACHN; > 32.3 µM (inactive) with NCI/ADR-RES; 35.9 µM (inactive) with Malme-3M.
Turning to `COC(=O)CN1C(=O)C2(C(=O)OC)OC1(c1ccc([N+](=O)[O-])cc1)C1C(=O)N(c3ccccc3)C(=O)C12` (centres undefined), the GI50 was > 100 µM (inactive) with HL-60; > 100 µM in the assay on HCT-15; > 100 µM (inactive) in the assay on HT-29; > 100 µM (inactive) in the assay with SNB-75; > 100 µM (inactive) in the assay with M14; > 100 µM (inactive) with OVCAR-4. In addition, the GI50 with HOP-62, in the assay with SK-MEL-2, with SF-295, in the assay with UACC-257, in the assay on SK-MEL-5 and in the assay on 786-0 was > 100 µM (inactive) in each case. Moreover, the GI50 in the assay on SK-MEL-28, in the assay on ACHN, in the assay with NCI/ADR-RES, in the assay on Malme-3M and in the assay with SF-539 was > 100 µM (inactive) each time.
On to `CCN1CCC(O)(c2ccc(Oc3ccc(F)cc3)cc2)C(C(=O)c2ccc(Oc3ccc(F)cc3)cc2)C1` (centres undefined), for which the GI50 in the assay on HCT-15 is 11.5 µM; with HT-29, 10.6 µM (inactive); in the assay on SNB-75 it was 15.5 µM (inactive); in the assay with OVCAR-3 it was 15.2 µM (inactive); with M14, 16.9 µM (inactive); with OVCAR-4, 15 µM (inactive). For the same compound, the GI50 is 15.8 µM (inactive) in the assay with HOP-62; 17.2 µM (inactive) in the assay with SK-MEL-2; 15.7 µM (inactive) with SF-295; 15.8 µM (inactive) in the assay on UACC-257; 11.9 µM (inactive) in the assay on HOP-92; 11.6 µM (inactive) in the assay with 786-0. The GI50 is 12.7 µM (inactive) in the assay with K562; 15.8 µM (inactive) in the assay with SK-MEL-28; 13.8 µM (inactive) in the assay on ACHN; 10.3 µM (inactive) with NCI/ADR-RES; 15.4 µM (inactive) in the assay on Malme-3M; 18.5 µM (inactive) with SF-539.
On to `CC(C)=CC(=O)O[C@@H]1CC(C)(C)CC2C3=CCC4[C@]56CC[C@](O)(OC5)C(C)(C)C6CC[C@@]4(C)C3(C)CC[C@]21C(=O)O` (some centres undefined), for which the GI50 in the assay with HL-60 was 44.2 µM (inactive); with HCT-15, 31.4 µM; in the assay with HT-29, 38.4 µM (inactive); in the assay on OVCAR-3, 31.3 µM (inactive); in the assay on M14 it was > 100 µM (inactive); with OVCAR-4, 63.2 µM (inactive). Besides, the GI50 in the assay with HOP-62 is 64.3 µM (inactive); in the assay on SK-MEL-2, > 100 µM (inactive); with SF-295, 56.5 µM (inactive); in the assay with UACC-257, > 100 µM (inactive); with SK-MEL-5 it was > 100 µM (inactive); in the assay with 786-0, 69.8 µM (inactive). The GI50 with K562 was 48 µM (inactive); in the assay on SK-MEL-28, > 100 µM (inactive); in the assay on ACHN, 25.8 µM (inactive); in the assay with NCI/ADR-RES it was 47.6 µM (inactive); in the assay with Malme-3M, > 100 µM (inactive); with SF-539, 38.5 µM (inactive).
For `COc1cc(-c2oc3c(OC)c(O)c(OC)c(O)c3c(=O)c2OC)cc(OC)c1OC`, the GI50 is 41 µM (inactive) in the assay on HL-60; 41.7 µM in the assay on HCT-15; 50.4 µM (inactive) with HT-29; 20.8 µM (inactive) with SNB-75; 31.6 µM (inactive) with OVCAR-3; 14.1 µM (inactive) in the assay on M14. Moreover, the GI50 was > 100 µM (inactive) with OVCAR-4; 28.8 µM (inactive) with HOP-62; 77.1 µM (inactive) with SK-MEL-2; > 100 µM (inactive) in the assay with SF-295; 82.4 µM (inactive) with UACC-257; 14 µM (inactive) in the assay on SK-MEL-5. Also, the GI50 in the assay on 786-0 was 32.4 µM (inactive); in the assay on K562, 36.7 µM (inactive); in the assay on SK-MEL-28 it was 81.5 µM (inactive); with ACHN, 48.3 µM (inactive); in the assay on NCI/ADR-RES, 62.5 µM (inactive); in the assay on Malme-3M, > 100 µM (inactive). Moreover, the GI50 with SF-539 is 74.3 µM (inactive).
For `CC(=O)Oc1ccccc1C(=O)O` [ASPIRIN], the GI50 is > 100 µM (inactive) with HL-60; > 100 µM in the assay with HCT-15; > 100 µM (inactive) in the assay on HT-29; > 100 µM (inactive) in the assay with SNB-75; > 100 µM (inactive) with OVCAR-3; > 100 µM (inactive) in the assay on M14. Moreover, the GI50 with OVCAR-4, with HOP-62, in the assay with SK-MEL-2, with SF-295, in the assay on UACC-257 and in the assay with SK-MEL-5 was > 100 µM (inactive) each time. For the same compound, the GI50 in the assay with 786-0, in the assay on K562, in the assay on SK-MEL-28, in the assay with ACHN, in the assay on NCI/ADR-RES and in the assay with Malme-3M was > 100 µM (inactive) throughout. The GI50 in the assay with SF-539 was > 100 µM (inactive).
